Assay results as given in PubChem BioAssay AID330 (DTP/NCI, 2004).
Values joined by “and” are separate entries in the source; they are usually repeats but may differ in a detail not shown here. Equal entries are not always repeated. Inconclusive results and toxic doses are left out. How the source made its calls: active means survival T/C of 150% or more; inactive means T/C below 125% in these data.

System: P388 leukemia ip, CD2F1 mice, survival T/C
Experiment: NCI In Vivo Anticancer Drug Screen. Data for tumor model P388 Leukemia (intraperitoneal) in CD2F1 (CDF1) mice
Settings: endpoint: median survival time, higher = longer survival
Procedure, shortened: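 Mice carrying the transplanted tumor received test compound or vehicle. Survival was recorded in each group, and the value is the treated-group measurement divided by that of the vehicle-treated control group.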

[1] = dose: 6.25 mg/kg/injection, schedule: Q01DX009 (ip), vehicle: saline with Tween-80
[2] = dose: 12.5 mg/kg/injection, schedule: Q01DX009 (ip), vehicle: saline with Tween-80
[3] = dose: 25.0 mg/kg/injection, schedule: Q01DX009 (ip), vehicle: saline with Tween-80
[4] = dose: 200.0 mg/kg/injection, schedule: Q01DX009 (ip), vehicle: saline
[5] = dose: 50.0 mg/kg/injection, schedule: Q01DX009 (ip), vehicle: saline
[6] = dose: 100.0 mg/kg/injection, schedule: Q01DX009 (ip), vehicle: saline
[7] = dose: 15.0 mg/kg/injection, schedule: Q01DX005 (ip), vehicle: saline with Tween-80
[8] = dose: 60.0 mg/kg/injection, schedule: Q01DX005 (ip), vehicle: saline with Tween-80
[9] = dose: 100.0 mg/kg/injection, schedule: Q04DX002 (ip), vehicle: saline with Tween-80
[10] = dose: 50.0 mg/kg/injection, schedule: Q01DX005 (ip), vehicle: Klucel (hydroxypropylcellulose) (HPC)
[11] = dose: 100.0 mg/kg/injection, schedule: Q01DX005 (ip), vehicle: Klucel (hydroxypropylcellulose) (HPC)
[12] = dose: 200.0 mg/kg/injection, schedule: Q01DX005 (ip), vehicle: Klucel (hydroxypropylcellulose) (HPC)
[13] = dose: 50.0 mg/kg/injection, schedule: Q01DX009 (ip), vehicle: Klucel (hydroxypropylcellulose) (HPC)
[14] = dose: 100.0 mg/kg/injection, schedule: Q01DX009 (ip), vehicle: Klucel (hydroxypropylcellulose) (HPC)
[15] = dose: 200.0 mg/kg/injection, schedule: Q01DX009 (ip), vehicle: Klucel (hydroxypropylcellulose) (HPC)

Measured: T/C

O=C1Nc2ccccc2C(O)(c2ccccc2)N1Cc1ccccc1 (configuration not stated)
inactive: [1] 91 % of control | [2] 100 % of control | [3] 88 % of control | [4] 87 % of control

CN(C)CCC(=O)c1cccc([N+](=O)[O-])c1
inactive: dose: 12.5 mg/kg/injection, schedule: Q01DX009 (ip), vehicle: saline 104 % of control | dose: 25.0 mg/kg/injection, schedule: Q01DX009 (ip), vehicle: saline 101 % of control | [5] 104 % of control and 109 % of control | [6] 98 % of control

NNc1ccc(Cl)nn1
inactive: dose: 7.5 mg/kg/injection, schedule: Q01DX005 (ip), vehicle: saline with Tween-80 101 % of control | [7] 99 % of control

CC1OC(=Nc2ccccc2)NC1=O (configuration not stated)
inactive: dose: 100.0 mg/kg/injection, schedule: Q01DX001 (ip), vehicle: saline with Tween-80 97 % of control | dose: 200.0 mg/kg/injection, schedule: Q01DX001 (ip), vehicle: saline with Tween-80 89 % of control

Nc1ccc2c(SCCCCCCCCSc3c4ccccc4nc4cc(N)ccc34)c3ccccc3nc2c1
inactive: [8] 106 % of control | dose: 120.0 mg/kg/injection, schedule: Q01DX005 (ip), vehicle: saline with Tween-80 106 % of control

O=c1[nH]c(=O)n(O)c2nc[nH]c12
inactive: [2] 90 % of control | [3] 100 % of control | dose: 50.0 mg/kg/injection, schedule: Q01DX009 (ip), vehicle: saline with Tween-80 90 % of control

COC(=O)c1nc(=S)[nH]c(C(=O)OC)c1C(=O)c1ccc(Cl)c(Cl)c1
inactive: dose: 60.0 mg/kg/injection, schedule: Q01DX005 (ip), vehicle: Klucel (hydroxypropylcellulose) (HPC) 89 % of control | dose: 120.0 mg/kg/injection, schedule: Q01DX005 (ip), vehicle: Klucel (hydroxypropylcellulose) (HPC) 92 % of control | dose: 240.0 mg/kg/injection, schedule: Q01DX005 (ip), vehicle: Klucel (hydroxypropylcellulose) (HPC) 95 % of control

COc1cccc2c1C(=O)c1c(O)c3c(c(O)c1C2=O)C[C@@](O)(C(C)=O)C[C@@H]3OC1CC(N=C(N)CCSSCCC(N)=NC2CC(O[C@H]3C[C@](O)(C(C)=O)Cc4c(O)c5c(c(O)c43)C(=O)c3c(OC)cccc3C5=O)OC(C)C2O)C(O)C(C)O1 (some centres not stated)
inactive: dose: 3.12 mg/kg/injection, schedule: Q04DX003 (ip), vehicle: distilled water + Tween-80 115 % of control | dose: 6.25 mg/kg/injection, schedule: Q04DX003 (ip), vehicle: distilled water + Tween-80 108 % of control and 122 % of control | dose: 12.5 mg/kg/injection, schedule: Q04DX003 (ip), vehicle: distilled water + Tween-80 118 % of control | dose: 25.0 mg/kg/injection, schedule: Q04DX003 (ip), vehicle: distilled water + Tween-80 116 % of control | dose: 50.0 mg/kg/injection, schedule: Q04DX003 (ip), vehicle: distilled water + Tween-80 105 % of control | dose: 100.0 mg/kg/injection, schedule: Q04DX003 (ip), vehicle: distilled water + Tween-80 121 % of control

O=C1Cc2ccccc2C(O)=C1c1cnccn1
inactive: [7] 93 % of control | dose: 30.0 mg/kg/injection, schedule: Q01DX005 (ip), vehicle: saline with Tween-80 99 % of control | [8] 101 % of control and 102 % of control

O=c1ccnc[nH]1
inactive: [9] 105 % of control | dose: 200.0 mg/kg/injection, schedule: Q04DX002 (ip), vehicle: saline with Tween-80 93 % of control

FC(F)(F)c1ccccc1N=Cc1cccs1
inactive: [5] 113 % of control | [6] 103 % of control | [4] 104 % of control

COC(=O)C1C(C)C2CCCCC2CC1(C)O (configuration not stated)
inactive: dose: 100.0 mg/kg/injection, schedule: Q04DX003 (ip), vehicle: Klucel (hydroxypropylcellulose) (HPC) 103 % of control | dose: 200.0 mg/kg/injection, schedule: Q04DX003 (ip), vehicle: Klucel (hydroxypropylcellulose) (HPC) 112 % of control | dose: 400.0 mg/kg/injection, schedule: Q04DX003 (ip), vehicle: Klucel (hydroxypropylcellulose) (HPC) 100 % of control

CCCNS(=O)(=O)c1ccccc1C(=O)NC1CCCCC1
inactive: [10] 103 % of control | [11] 93 % of control | [12] 94 % of control

Cc1ccc(S(=O)(=O)Nc2cc(S(=O)(=O)O)c(N)c3c2C(=O)c2ccccc2C3=O)cc1
inactive: [5] 86 % of control | [6] 97 % of control | [4] 101 % of control

CCCCOCN(CC(CC)CCCC)CC(CC)CCCC (configuration not stated)
inactive: dose: 50.0 mg/kg/injection, schedule: Q01DX005 (ip), vehicle: saline with Tween-80 98 % of control | dose: 100.0 mg/kg/injection, schedule: Q01DX005 (ip), vehicle: saline with Tween-80 100 % of control | dose: 200.0 mg/kg/injection, schedule: Q01DX005 (ip), vehicle: saline with Tween-80 104 % of control

Cc1ccc(S(=O)(=O)N/N=C/c2ccccc2)cc1
inactive: dose: 25.0 mg/kg/injection, schedule: Q01DX009 (ip), vehicle: Klucel (hydroxypropylcellulose) (HPC) 95 % of control | [13] 94 % of control | [14] 95 % of control | [15] 97 % of control | dose: 400.0 mg/kg/injection, schedule: Q01DX009 (ip), vehicle: Klucel (hydroxypropylcellulose) (HPC) 109 % of control

Nc1cc(C(F)(F)F)ccc1-c1ccn[nH]1
inactive: [5] 94 % of control | [6] 97 % of control | [4] 96 % of control

CCCCNCCC(=O)c1ccc(Cl)cc1
inactive: [1] 100 % of control | [2] 100 % of control | [3] 105 % of control

CC1C(O)CC23COC(=O)C2=CCCC3C1(C)CCC1=CC(=O)OC1 (configuration not stated)
inactive: dose: 8.75 mg/kg/injection, schedule: Q01DX005 (ip), vehicle: Klucel (hydroxypropylcellulose) (HPC) 101 % of control | dose: 17.5 mg/kg/injection, schedule: Q01DX005 (ip), vehicle: Klucel (hydroxypropylcellulose) (HPC) 106 % of control | dose: 35.0 mg/kg/injection, schedule: Q01DX005 (ip), vehicle: Klucel (hydroxypropylcellulose) (HPC) 92 % of control | dose: 70.0 mg/kg/injection, schedule: Q01DX005 (ip), vehicle: Klucel (hydroxypropylcellulose) (HPC) 97 % of control

CC(=O)N/N=C(\C(=O)OC(=NC1CCCCC1)NC1CCCCC1)c1ccccc1
inactive: [10] 87 % of control | [11] 87 % of control | [12] 91 % of control

COc1ccc(/C=C\c2cc(OC)c(OC)c(OC)c2)c(O)c1O
inactive: dose: 3.12 mg/kg/injection, schedule: Q01DX009 (ip), vehicle: saline + Tween-80 + alcohol 124 % of control | dose: 12.5 mg/kg/injection, schedule: Q01DX009 (ip), vehicle: saline + Tween-80 + alcohol 104 % of control and 97 % of control | dose: 22.0 mg/kg/injection, schedule: Q01DX009 (ip), vehicle: saline + alcohol 95 % of control | dose: 50.0 mg/kg/injection, schedule: Q01DX009 (ip), vehicle: saline + Tween-80 + alcohol 109 % of control

O=C(CCl)NC1(C(=O)O)CCCC1
inactive: [13] 94 % of control | [14] 90 % of control | [15] 97 % of control

O=C1C[C@@H](c2ccccc2)NCCCCN(O)CCCN1
inactive: dose: 25.0 mg/kg/injection, schedule: Q01DX005 (ip), vehicle: saline 106 % of control | dose: 50.0 mg/kg/injection, schedule: Q01DX005 (ip), vehicle: saline 97 % of control | dose: 100.0 mg/kg/injection, schedule: Q01DX005 (ip), vehicle: saline 100 % of control

CC(C)SCNc1ncnc2c1ncn2C1OC(CO)C(O)C1O (configuration not stated)
inactive: [9] 98 % of control

CN(C)/C=C(\C#N)C=O
inactive: dose: 18.75 mg/kg/injection, schedule: Q01DX009 (ip), vehicle: saline sonified 118 % of control | dose: 37.5 mg/kg/injection, schedule: Q01DX009 (ip), vehicle: saline sonified 109 % of control
